The test system of this assay is Arom^hum mice. The following applies: 3 weeks old mice; high-dose DHT via injection for 53 days; vs vehicle; p<0.005.

The text below walks through data of US20240238310A1, “MODULATION OF SEX STEROID HORMONE PRODUCTION AND ACTIVITY FOR TREATING AND PREVENTING HERNIAS” (Northwestern University, priority 2020, published 2024).

Protocol: 3-week-old mice were treated with vehicle (Veh) or DHT for 53 days.

For the compound `C[C@]12CCC(=O)C[C@@H]1CC[C@@H]1[C@@H]2CC[C@]2(C)[C@@H](O)CC[C@@H]12` [DHT, dihydrotestosterone], the hernia volume result is given as “significantly decreased”.
